Results published in patent US6589916B1, “Method and composition for treating and promoting the growth of plants” (Amvac Chemical Corporation, priority 1999, dated 2003).

Tests used:
[1] = four hours ultraviolet light from an arc; U.S. Pat. No. 2,835,625; cited from earlier work
[2] = system: live grass (Bermudagrass (Common, Midiron, and Ormond), Tifway II, Tifway 419, Tifdwarf, and Tifgreen 328 grasses); assay: Methyldithiocarbamate trials: spray treatment of live golf course grass plots, leaf appearance scored; assay type: in vivo; design: key to score for appearance of the grass leaves: 0: burning of leaf tissue; 1: bronzing of leaf tissue; 2: burning of the tip of the leaf tissue; 3: No burning or change in color of the leaf tissue; 4: good greening of the leaf tissue; 5: excellent greening of the leaf tissue
Description: The effect of the application of methylammonium methyldithiocarbamate to live grass was determined in the following manner. Dilute aqueous solutions of three salts of the same dithiocarbamic acid derivative were prepared: methylammonium methyldithiocarbamate, sodium methyldithiocarbamate, and potassium methyldithiocarbamate. The solutions were prepared by mixing the dithiocarbamic acid derivative with water to achieve a concentration of between about 1.2 and 3.5% by weight.
Three plots of grass of substantially equal type, quality, color, and size were selected at each of several golf courses throughout the state of Florida. The grass at these courses consisted of one or a combination of Bermudagrass (Common, Midiron, and Ormond), Tifway II, Tifway 419, Tifdwarf, and Tifgreen 328 grasses. To each of these plots one of the methyldithiocarbamate salts were applied via an ordinary above-ground spraying system in an amount equivalent to between about 0.5 to 40 lbs of methyldithiocarbamate salt per acre of soil. All applications were watered in with 1/2 inch of water within 20 minutes of treatment, which moved the dithiocarbamic acid derivative into and slightly below the root zone of the grass.
The results of treating each plot with the methyldithiocarbamate salts were evaluated from 1 to 2 weeks after treatment by examining the appearance of the grass leaves. A score was assigned to each plot according to the following scale: 0=burning of leaf tissue; 1=bronzing of leaf tissue; 2=burning of the tip of the leaf tissue; 3=No burning or change in color of the leaf tissue; 4=good greening of the leaf tissue; 5=excellent greening of the leaf tissue. Where two values were assigned, the plot contained a substantial number of grass leaves of one score and a substantial number of the other score.

Morning Glory = conditions: stated in U.S. Pat. No. 2,766,554; cited from earlier work
[3] = 1. Grenelefe Resort, treated February 1998, evaluation 2 weeks after treatment
[4] = 1. Grenelefe Resort, treated January 1998, evaluation 2 weeks after treatment
[5] = 1. Grenelefe Resort, treated March 1998, evaluation 2 weeks after treatment
[6] = 2. Long Boat Key, treated April 1998, evaluation 1 week after treatment
[7] = 2. Long Boat Key, treated February 1998, evaluation 2 weeks after treatment
[8] = 2. Long Boat Key, treated March 1998, evaluation 2 weeks after treatment
[9] = 3. Indian River Club, treated April 1998, evaluation 1 week after treatment
[10] = 3. Indian River Club, treated March 1998, evaluation 2 weeks after treatment
[11] = 3. Indian River Club, treated May 1998, evaluation 1 week after treatment
[12] = 4. La Cita C.C., treated June 1998, evaluation 1 week after treatment
[13] = 4. La Cita C.C., treated March 1998, evaluation 1 week after treatment
[14] = 4. La Cita C.C., treated September 1998, evaluation 1 week after treatment
[15] = 5. Wellington C.C., treated April 1998, evaluation 2 weeks after treatment
[16] = 6. Dodgertown C.C., treated April 1998, evaluation 1 week after treatment
[17] = 6. Dodgertown C.C., treated May 1998, evaluation 1 week after treatment
[18] = 7. Westchester C.C., treated April 1998, evaluation 1 week after treatment
[19] = 8. President Club, treated July 1998, evaluation 1 week after treatment
[20] = 8. President Club, treated May 1998, evaluation 1 week after treatment
[21] = 9. Vero Beach C.C., treated June 1998, evaluation 1 week after treatment
[22] = 10. Admirals Cove, treated July 1998, evaluation 1 week after treatment
[23] = 11. Moorings C.C., treated August 1998, evaluation 1 week after treatment
[24] = 12. Hawks Nest C.C., treated August 1998, evaluation 1 week after treatment
[25] = 13. Woodmont C.C., treated June 1998, evaluation 1 week after treatment
[26] = 13. Woodmont C.C., treated September 1998, evaluation 1 week after treatment

Compound | score for appearance of the grass leaves [2, 3] | score for appearance of the grass leaves [2, 4] | score for appearance of the grass leaves [2, 5] | score for appearance of the grass leaves [2, 6] | score for appearance of the grass leaves [2, 7] | score for appearance of the grass leaves [2, 8] | score for appearance of the grass leaves [2, 9] | score for appearance of the grass leaves [2, 10] | score for appearance of the grass leaves [2, 11] | score for appearance of the grass leaves [2, 12] | score for appearance of the grass leaves [2, 13] | score for appearance of the grass leaves [2, 14] | score for appearance of the grass leaves [2, 15] | score for appearance of the grass leaves [2, 16] | score for appearance of the grass leaves [2, 17] | score for appearance of the grass leaves [2, 18] | score for appearance of the grass leaves [2, 19] | score for appearance of the grass leaves [2, 20] | score for appearance of the grass leaves [2, 21] | score for appearance of the grass leaves [2, 22] | further results
CC(C)OC(=O)SC(=S)N(C)C [isopropoxycarbonyl dimethyldithiocarbamate] | – | – | – | – | – | – | – | – | – | – | – | – | – | – | – | – | – | – | – | – | biological activity after ultraviolet light treatment [1]: without losing any biological activity
CN.CNC(=S)S [METHYL AMMONIUM, methylammonium methyldithiocarbamate] | 3-4 | 4 | 4 | 4 | 4 | 4 | 4 | 4 | 4 | 5 | 5 | 5 | 5 | 4 | 4 | 4 | 5 | 5 | 4-5 | 4 | score for appearance of the grass leaves [2, 23]: 5; score for appearance of the grass leaves [2, 24]: 5; score for appearance of the grass leaves [2, 25]: 5; score for appearance of the grass leaves [2, 26]: 5; appearance of the grass leaf tissue, in words ([2]; Grenelefe Resort, February): improved only marginally in color; appearance of the grass leaf tissue, summary in words ([2]; all treated areas of Table 2): either good or excellent greening of the leaf tissue; results compared with potassium methyldithiocarbamate ([2]; all trials of Table 2): far better results than the potassium methyldithiocarbamate; results compared with sodium methyldithiocarbamate ([2]; all trials of Table 2): better results than the sodium methyldithiocarbamate; eradication of Morning Glory (Morning Glory): excellent eradicator of Morning Glory
CNC(=S)[S-].[K+] [POTASSIUM, potassium methyldithiocarbamate] | 1 | 0 | 0-1 | 1-2 | 1 | 1-2 | 0-1 | 1 | 1-2 | 1 | 2 | 2 | 1 | 0 | 1-2 | 1 | 2-3 | 0 | 1 | 1-2 | score for appearance of the grass leaves [2, 23]: 1; score for appearance of the grass leaves [2, 24]: 0; score for appearance of the grass leaves [2, 25]: 1-2; score for appearance of the grass leaves [2, 26]: 2-3
CNC(=S)[S-].[Na+] [SODIUM, sodium methyldithiocarbamate] | 3 | 3 | 3-4 | 3 | 2 | 3 | 3 | 3 | 3-4 | 3-4 | 4 | 4 | 3 | 3 | 3-4 | 3 | 4 | 4 | 3-4 | 3-4 | score for appearance of the grass leaves [2, 23]: 4; score for appearance of the grass leaves [2, 24]: 4; score for appearance of the grass leaves [2, 25]: 4; score for appearance of the grass leaves [2, 26]: 4
